The values that follow come from ChEMBL document CHEMBL5131569, “SAGE-718: A First-in-Class N-Methyl-d-Aspartate Receptor Positive Allosteric Modulator for the Potential Treatment of Cognitive Impairment” (J Med Chem, 2022).

Series [1] concerns the target T1, Glutamate NMDA receptor; GRIN1/GRIN2A (Homo sapiens, UniProt Q05586+Q12879). Nature of the series: Positive allosteric modulation of recombinant human GluN1/GluN2A receptor stably expressed in HEK293 cells assessed as increase in glycine/L-glutamate-induced channel current at -70 mV holding potential by whole cell patch clamp method. The class given is cell-based.

Series [2] has as its target T2, Glutamate NMDA receptor; GRIN1/GRIN2B (Homo sapiens, UniProt Q05586+Q13224). Nature of the series: Positive allosteric modulation of recombinant human GluN1/GluN2B receptor stably expressed in HEK293 cells assessed as increase in glycine/L-glutamate-induced channel current at -70 mV holding potential by whole cell patch clamp method. It is filed as cell-based.
Series [3] concerns the target T1, Glutamate NMDA receptor; GRIN1/GRIN2A. Nature of the series: Positive allosteric modulation of recombinant human GluN1/GluN2A receptor stably expressed in HEK293 cells assessed as increase in glycine/L-glutamate-induced channel current at -70 mV holding potential by whole cell patch clamp method relative to control. It is filed as cell-based. The settings on record: filed as positive allosteric modulator. For orientation: The patch-clamp technique gives a direct electrical read-out from membranes.

For series [4], the target named is T2, Glutamate NMDA receptor; GRIN1/GRIN2B. Nature of the series: Positive allosteric modulation of recombinant human GluN1/GluN2B receptor stably expressed in HEK293 cells assessed as increase in glycine/L-glutamate-induced channel current at -70 mV holding potential by whole cell patch clamp method relative to control. It is filed as cell-based. The conditions noted are these: filed as positive allosteric modulator.

Series [5] is described as follows: Lipophilicity, logD of compound in MeOH at 20 uM by HPLC analysis. It is filed as physicochemical.
A short description of series [6]: Metabolic stability in mouse liver microsomes assessed as intrinsic clearance at 10 uM preincubated for 5 mins followed by NADPH addition and measured upto 65 mins by LC-MS/MS analysis. The class given is ADME, Microsome. The settings on record: time < 70 min, read-out: CLH. (Liver microsomes are vesicles of endoplasmic reticulum, rich in cytochrome P450 enzymes.)

Series [7] can be described thus: Metabolic stability in human liver microsomes assessed as intrinsic clearance at 10 uM preincubated for 5 mins followed by NADPH addition and measured upto 65 mins by LC-MS/MS analysis. It is filed as ADME, Microsome. The conditions noted are these: time < 70 min, read-out: CLH.
Series [8] is described as follows: Clearance in Sprague-Dawley rat by LC-MS/MS analysis. It is filed as ADME. The settings on record: in vivo.
Series [9] can be described thus: Oral bioavailability in Sprague-Dawley rat by LC-MS/MS analysis. The class given is ADME, organism-based. The settings on record: in vivo.
Series [10] can be described thus: Ratio of drug concentration in ip dosed CD-1 mouse brain to plasma after 1 hr by LC-MS/MS analysis. It is filed as ADME, organism-based. The settings on record: brain and plasma.
Series [11] is described as follows: Clearance in po dosed rat. It is filed as ADME, organism-based. The conditions noted are these: in vivo.
Series [12] in a line: Half life in po dosed rat. The class given is ADME, organism-based. The conditions noted are these: in vivo.
The nature of series [13]: Oral bioavailability in rat. The class given is ADME, organism-based. The settings on record: in vivo.
The nature of series [14]: Metabolic stability in rat liver microsomes assessed as intrinsic clearance at 10 uM preincubated for 5 mins followed by NADPH addition and measured upto 65 mins by LC-MS/MS analysis. It is filed as ADME, Microsome. The conditions noted are these: time < 70 min, read-out: CLH.
Series [15] is described as follows: Aqueous solubility of compound in PBS incubated for 1 hr under shaking condition by HPLC-MS/MS analysis. The class given is physicochemical.
The nature of series [16]: Metabolic stability in dog liver microsomes assessed as intrinsic clearance at 10 uM preincubated for 5 mins followed by NADPH addition and measured upto 65 mins by LC-MS/MS analysis. It is filed as ADME, Canis lupus familiaris, Microsome. The conditions noted are these: time < 70 min, read-out: CLH.
Series [17] is described as follows: Clearance in CD-1 mouse by LC-MS/MS analysis. The class given is ADME. The conditions noted are these: in vivo.
Series [18] can be described thus: Clearance in Beagle dog by LC-MS/MS analysis. It is filed as ADME, Canis lupus familiaris. The conditions noted are these: in vivo.
The nature of series [19]: Oral bioavailability in CD-1 mouse by LC-MS/MS analysis. It is filed as ADME, organism-based. The settings on record: in vivo.
Series [20] in a line: Oral bioavailability in Beagle dog by LC-MS/MS analysis. The class given is ADME, organism-based, Canis lupus familiaris. The settings on record: in vivo.

Converted amounts (≈) assume the structure as drawn.

Regarding `C[C@H](CC[C@@](C)(O)C(F)(F)F)[C@H]1CC[C@H]2[C@@H]3CC=C4C[C@@](C)(O)CC[C@]4(C)[C@H]3CC[C@]12C`, the EC50 (commonly the concentration needed to bring the measured effect to its halfway point) in series [1] worked out at 310 nM; in series [2], 180 nM.

Take `C[C@H](CC[C@](C)(O)C(F)(F)F)[C@H]1CC[C@H]2[C@@H]3CC[C@@H]4C[C@@](C)(O)CC[C@]4(C)[C@H]3CC[C@]12C`: the EC50 in [1] and in [2] was greater than 10000 nM each time.

Regarding `CCCC[C@@](C)(O)CC[C@@H](C)[C@H]1CC[C@H]2[C@@H]3CC=C4C[C@@](C)(O)CC[C@]4(C)[C@H]3CC[C@]12C`, the EC50 turned out to be 160 nM in series [1] and 190 nM in series [2]. The values for the Emax in [3] and in [4] were 190% and 170%, respectively.

Take `CC(C)[C@@](C)(O)CC[C@@H](C)[C@H]1CC[C@H]2[C@@H]3CC=C4C[C@@](C)(O)CC[C@]4(C)[C@H]3CC[C@]12C`: the EC50 worked out at 60 nM in series [1] and 23 nM in series [2]. For the same compound, the figures for the maximal response (Emax) in series [3] and in [4] were 260% and 220%, respectively. The logD (usually the decadic logarithm of the distribution of all forms, ionised or not, between an organic phase and buffer at a given pH) at 20 µM in [5] stood at 6.7. Moreover, the microsomal CLint at 10 µM in series [6] stood at 31 µL/min/mg; in series [7], 6.8 µL/min/mg. Also, the clearance (usually the volume of plasma or blood freed of the substance per unit of time) in series [8] is 31.7 mL/min/kg. Also, in series [9], the bioavailability was determined as 116%. In addition, the Kp – broadly, tissue or fluid exposure divided by exposure in the circulation – at 1 h in series [10] came out at 0.2.

For the compound `CC(C)[C@@H](O)CC[C@@H](C)[C@H]1CC[C@H]2[C@@H]3CC=C4C[C@@H](O)CC[C@]4(C)[C@H]3CC[C@]12C`, in series [11], the CL/F (commonly the apparent clearance, not corrected for the fraction that reaches the circulation) was 91.7 mL/min/kg. Also, the half-life (usually the time needed for the level to fall by half in the phase considered) in [12] was less than 0.6 h. Further, in series [13], the bioavailability was less than 10%.

Regarding `C[C@H](CC[C@](C)(O)C(F)(F)F)[C@H]1CC[C@H]2[C@@H]3CC=C4C[C@](C)(O)CC[C@]4(C)[C@H]3CC[C@]12C`, the figures for the EC50 in series [1] and in [2] were 2200 nM and 1500 nM, respectively.

For the compound `C[C@H](CC[C@](C)(O)C(F)(F)F)[C@H]1CC[C@H]2[C@@H]3CC[C@H]4C[C@@](C)(O)CC[C@]4(C)[C@H]3CC[C@]12C`, the EC50 in [1] turned out to be 180 nM; in series [2] it was 110 nM. Moreover, the Emax (as a rule, the maximal effect, on the per cent scale that the assay sets) in [3] is 150%; in [4] it was 100%.

`CC(C)[C@](C)(O)CC[C@@H](C)[C@H]1CC[C@H]2[C@@H]3CC=C4C[C@@](C)(O)CC[C@]4(C)[C@H]3CC[C@]12C`: the EC50 is 120 nM in [1] and 81 nM in series [2]. Further, the Emax in [3] is 170%; in series [4] it was 150%.

For the compound `C[C@H](CC[C@](C)(O)C(F)(F)F)[C@H]1CC[C@H]2[C@@H]3CC=C4C[C@@](C)(O)CC[C@@H]4[C@H]3CC[C@]12C`, the values for the concentration for a half-maximal effect (EC50) in [1] and in series [2] were 93 nM and 250 nM, respectively. The Emax turned out to be 50% in series [3] and 52% in series [4].

For `C#C[C@](C)(O)CC[C@@H](C)[C@H]1CC[C@H]2[C@@H]3CC=C4C[C@@](C)(O)CC[C@]4(C)[C@H]3CC[C@]12C`, the EC50 in series [1] and in series [2] was greater than 10000 nM in each case.

Turning to `CC[C@@](C)(O)CC[C@@H](C)[C@H]1CC[C@H]2[C@@H]3CC=C4C[C@@](C)(O)CC[C@]4(C)[C@H]3CC[C@]12C`, the EC50 in [1] was found to be 150 nM; in series [2], 300 nM. Moreover, the Emax worked out at 280% in [3] and 190% in [4].

Regarding `C[C@H](CC[C@](C)(O)CCO)[C@H]1CC[C@H]2[C@@H]3CC=C4C[C@@](C)(O)CC[C@]4(C)[C@H]3CC[C@]12C`, the EC50 in series [1] and in [2] was greater than 10000 nM each time.

With `C[C@H](CC[C@@](C)(O)CCO)[C@H]1CC[C@H]2[C@@H]3CC=C4C[C@@](C)(O)CC[C@]4(C)[C@H]3CC[C@]12C`, the EC50 in [1] and in series [2] was greater than 10000 nM throughout.

For the compound `COCC[C@@](C)(O)CC[C@@H](C)[C@H]1CC[C@H]2[C@@H]3CC=C4C[C@@](C)(O)CC[C@]4(C)[C@H]3CC[C@]12C`, the EC50 in series [1] stood at 220 nM; in series [2], 590 nM. Also, the Emax in series [3] amounted to 87%; in series [4], 130%.

On to `CCCC[C@](C)(O)CC[C@@H](C)[C@H]1CC[C@H]2[C@@H]3CC=C4C[C@@](C)(O)CC[C@]4(C)[C@H]3CC[C@]12C`, for which the EC50 in series [1] was found to be 100 nM; in series [2], 450 nM. The Emax in series [3] and in series [4] was 170% throughout.

With `C#C[C@@](C)(O)CC[C@@H](C)[C@H]1CC[C@H]2[C@@H]3CC=C4C[C@@](C)(O)CC[C@]4(C)[C@H]3CC[C@]12C`, the 50% effective concentration (EC50) in series [1] was greater than 10000 nM; in [2], 1100 nM. Also, the Emax in series [4] was 56%.

`C[C@H](CC[C@@H](O)C(F)(F)F)[C@H]1CC[C@H]2[C@@H]3CC=C4C[C@@](C)(O)CC[C@]4(C)[C@H]3CC[C@]12C` showed a CL/F in series [11] of 33.3 mL/min/kg. The half-life in [12] is 5.75 h. The bioavailability in [13] was 18%.

Take `CC[C@](C)(O)CC[C@@H](C)[C@H]1CC[C@H]2[C@@H]3CC=C4C[C@@](C)(O)CC[C@]4(C)[C@H]3CC[C@]12C`: the microsomal CLint at 10 µM was 2.7 µL/min/mg in series [14], 8.4 µL/min/mg in series [6] and 0.14 µL/min/mg in series [7]. The EC50 was determined as 55 nM in series [1] and 100 nM in series [2]. Besides, the Emax in series [3] worked out at 170%; in [4] it was 120%. Besides, the logD at 20 µM in series [5] is 6.5. In series [8], this compound gave a clearance of 36.7 mL/min/kg. Besides, the bioavailability in series [9] is 89%. For the same compound, the Kp at 1 h in [10] is 0.2.

Consider `C[C@H](CC[C@@](C)(O)C1CC1)[C@H]1CC[C@H]2[C@@H]3CC=C4C[C@@](C)(O)CC[C@]4(C)[C@H]3CC[C@]12C`, for which the EC50 in series [1] worked out at 74 nM; in [2] it was 49 nM. Besides, the Emax turned out to be 180% in series [3] and 140% in [4].

`C[C@H](CC[C@](C)(O)C1CC1)[C@H]1CC[C@H]2[C@@H]3CC=C4C[C@@](C)(O)CC[C@]4(C)[C@H]3CC[C@]12C`: the EC50 came to 420 nM in series [1] and 60 nM in [2]. In addition, the Emax in series [3] and in series [4] was 130% throughout.

Take `C[C@H](CCC(C)(C)O)[C@H]1CC[C@H]2[C@@H]3CC=C4C[C@@](C)(O)CC[C@]4(C)[C@H]3CC[C@]12C`: the microsomal CLint at 10 µM worked out at 35 µL/min/mg in series [14], 42 µL/min/mg in series [6], 16 µL/min/mg in [16] and 13 µL/min/mg in series [7]. Besides, the logD at 20 µM in [5] worked out at 5. Moreover, the concentration in solution in series [15] (solubility at 1 h) came to 0.62 µM (≈ 0.25 µg/mL). Further, the clearance in series [17] is 18.3 mL/min/kg; in [8], 30 mL/min/kg; in series [18] it was 3.33 mL/min/kg. Further, the figures for the bioavailability in series [19], in [9] and in [20] were 53%, 23% and 17%, respectively. Also, in series [10], the Kp at 1 h was 0.6. For the same compound, in [11], the CL/F was 18.3 mL/min/kg. Besides, the half-life in series [12] is 1.7 h.
